Measured values: patent US20250092065A1, “2-(INDAZOL-5-YL)-6-(PIPERIDIN-4-YL)-1,7-NAPHTHYRIDINE DERIVATIVES AND RELATED COMPOUNDS AS MODULATORS FOR SPLICING NUCLEIC ACIDS AND FOR THE TREATMENT OF PROLIFERATIVE DISEASES” (REMIX THERAPEUTICS INC., priority 2022, published 2025)
Read-outs that look alike come from different tables or passages of the source.

Key:
MYB mRNA = assay: RT-qPCR splicing assay, MYB mRNA canonical (CJ) and alternative (AJ) junction; assay type: cell-based, human; settings: Homo sapiens
Outline: (§1)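 Both isoforms, CJ and AJ, read by qPCR from crude lysates of treated A673 or K562 cells; 24 h, 37 °C, maximum 10 uM. Normalization: housekeeper ΔCt, then DMSO ΔΔCt.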

K562 cells = assay: Cell Titer Glo 2.0 cell viability (toxicity) assay, K562; settings: 500 cells/well, 72 hours
HTT mRNA = assay: RT-qPCR splicing assay, HTT mRNA canonical (CJ) and alternative (AJ) junction; assay type: cell-based, human; settings: Homo sapiens
Outline: as §1

Target C [1] = assay: RT-qPCR canonical junction panel assay, Target C mRNA; assay type: cell-based; settings: Table 4, read-out: Target C IC50 (decrease in CJ mRNA levels)
Method: Compounds described herein were used to modulate RNA transcript abundance in cells. The expression of a target mRNA was measured by detecting the formation of an exon-exon junction in the canonical transcript (CJ). A compound mediated exon-inclusion event was detected by observing an increase in formation of a new junction with an alternative exon (AJ). Real-time qPCR assays were used to detect these splicing switches and interrogate the potency of various compounds towards different target genes. A high-throughput real time quantitative PCR (RT-qPCR) assay was developed to measure these two isoforms of the mRNA (CJ and AJ) for exemplary genes, such as HTT, SMN2, and MYB, together with a control housekeeping gene, GAPDH or GUSB or PPIA, used for normalization. Briefly, the A673 or K562 cell line was treated with various compounds described herein (e.g., compounds of Formula (I)). After treatment, the levels of the HTT, MYB, or SMN2 mRNA targets were determined from each sample of cell lysate by cDNA synthesis followed by qPCR.
The data analysis was performed by first determining the ΔCt vs the housekeeper gene. This ΔCt was then normalized against the DMSO control (ΔΔCt) and converted to RQ (relative quantification) using the 2^(−ΔΔCt) equation. The RQ were then converted to a percentage response by arbitrarily setting an assay window of 3.5 and 4.0 ΔCt for HTT-CJ and MYB-CJ respectively and an assay window of 9 and 3 ΔCt for HTT-AJ and MYB-AJ in 96 well format (50,000 K562 cells/well and 15,000 A673 cells per well) and an assay window of 3 and 4 ΔCt for HTT-CJ and MYB-CJ respectively and an assay window of 5 and 3 ΔCt for HTT-AJ and MYB-AJ respectively in 384 well format (8,000 K562 cells/well example). […] The percentage response was then fitted to the 4 parametric logistic equation to evaluate the concentration dependence of compound treatment. The increase in AJ mRNA is reported as AC50 (compound concentration having 50% response in AJ increase) while the decrease in CJ mRNA levels is reported as IC50 (compound concentration having […] in CJ decrease).
Additional studies were carried out for a larger panel of genes using the protocol provided above. The junction between flanking upstream and downstream exons was used to design canonical junction Qpcr assays. At least one of the forward primer, reverse primer or the CY5-labeled 5′ nuclease probe (with 3′ quencher such as ZEN/Iowa Black FQ) was designed to overlap with the exon junction to capture the CJ Mrna transcript. BLAST was used to confirm the specificity of the probeset and parameters suCH As melting temperature, GC content, amplicon size, and primer dimer formation are considered during their design. Data for the decrease in CJ Mrna levels for four exemplary genes (HTT, SMN2, MYB, and Target C) analyzed in this panel are reported as IC50 (compound concentration having […] in CJ decrease).

HTT = assay: HiBiT protein abundance assay, HTT (K562 HiBiT knock-in); assay type: cell-based, human; settings: HiBiT knock-in K562 cells, 24 hours, top dose 10 μM
Outline: (§2)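 Endogenously HiBiT-tagged K562 lines were treated for 24 h at 37 °C with 10-point 3-fold dilutions (top 10 μM final, DMSO ≤0.25%). Lytic LgBiT complementation luminescence was normalized between unmodified K562 (PC) and DMSO-treated tagged cells (NC); IC50 was interpolated at 50% from a four-parameter logistic fit.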

Target C [2] = assay: HiBiT protein abundance assay, Target C (K562 HiBiT knock-in); assay type: cell-based, human; settings: HiBiT knock-in K562 cells, 24 hours, top dose 10 μM
Outline: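 K562 HiBiT knock-in cells (10000/well) were treated 24 h at 37° C with a 10-point 3-fold dilution series (top 10 μM final, ≤0.25% DMSO). HiBiT luminescence was read after lytic LgBiT detection. Percent response used unmodified K562 and DMSO-treated knock-in controls, and IC50 came from a four-parameter fit at 50% of untreated.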

SMN2 mRNA = assay: RT-qPCR splicing assay, SMN2 mRNA; assay type: cell-based, human; settings: Homo sapiens, canonical junction qPCR panel, Table 4; read-out: SMN2 IC50 (decrease in CJ mRNA levels)
Outline: as §1

MYB = assay: HiBiT protein abundance assay, MYB (K562 HiBiT knock-in); assay type: cell-based, human; settings: HiBiT knock-in K562 cells, 24 hours, top dose 10 μM
Outline: as §2

[3] = RT-qPCR, MYB alternative junction mRNA increase, read-out: MYB AJ (increase in alternative junction mRNA, AC50)
[4] = RT-qPCR, MYB canonical junction mRNA decrease, read-out: MYB CJ (decrease in canonical junction mRNA, IC50)
[5] = canonical junction qPCR panel, Table 4, read-out: MYB IC50 (decrease in CJ mRNA levels)
[6] = RT-qPCR, HTT alternative junction mRNA increase, read-out: HTT AJ (increase in alternative junction mRNA, AC50)
[7] = RT-qPCR, HTT canonical junction mRNA decrease, read-out: HTT CJ (decrease in canonical junction mRNA, IC50)
[8] = canonical junction qPCR panel, Table 4, read-out: HTT IC50 (decrease in CJ mRNA levels)
[9] = MYB alternative junction mRNA, RT-qPCR, read-out: MYB AJ (increase in AJ mRNA, AC50)
[10] = MYB canonical junction mRNA, RT-qPCR, read-out: MYB CJ (decrease in CJ mRNA levels, IC50)
[11] = HTT alternative junction mRNA, RT-qPCR, read-out: HTT AJ (increase in AJ mRNA, AC50)
[12] = HTT canonical junction mRNA, RT-qPCR, read-out: HTT CJ (decrease in CJ mRNA levels, IC50)

| SMILES | AC50 (MYB mRNA; [3]) [nM] | IC50 (MYB mRNA; [4]) [nM] | IC50 (MYB mRNA; [5]) [nM] | Effect of Exemplary Compounds on Cell Viability, K562 (K562 cells) | AC50 (HTT mRNA; [6]) [nM] | IC50 (HTT mRNA; [7]) [nM] | IC50 (HTT mRNA; [8]) [nM] | IC50 (Target C [1]) [nM] | IC50 (HTT) [nM] | IC50 (Target C [2]) [nM] | IC50 (SMN2 mRNA) [nM] | AC50 (MYB mRNA; [9]) [nM] | IC50 (MYB mRNA; [10]) [nM] | AC50 (HTT mRNA; [11]) [nM] | IC50 (HTT mRNA; [12]) [nM] | IC50 (MYB) [nM] |
| --- | --- | --- | --- | --- | --- | --- | --- | --- | --- | --- | --- | --- | --- | --- | --- | --- |
| Cc1c(O)c(-c2nc(C3CCC3)c3cc(N4C[C@H](C)N[C@@H](C)C4)ccc3n2)cc2cn(C)nc12 (single isomer, unassigned) [Compound 794] | 100 to 1000 | 100 to 1000 | 100 to 1000 | B (B represents 100-1000 nM) | 1000 to 10000 | > 10000 | > 10000 | > 10000 | – | – | – | – | – | – | – | – |
| Cc1cn2nc(-c3ncc4cc(N5C[C@H](C)N[C@@H](C)C5)ccc4n3)cc(C)c2n1 (single isomer, unassigned) [Compound 798] | 100 to 1000 | 1000 to 10000 | 1000 to 10000 | C (C represents 1000-9999 nM) | > 10000 | > 10000 | > 10000 | > 10000 | – | – | – | – | – | – | – | – |
| Cc1nc2c(F)c(O)c(-c3ccc4nc(N5CC[C@@H](NC6CC6)C5)ccc4n3)cc2o1 [Compound 253] | – | – | < 100 | A (A represents <100 nM) | – | – | < 100 | – | < 100 | < 100 | < 100 | < 100 | < 100 | < 100 | < 100 | < 100 |
| Cc1nc2c(F)c(O)c(-c3ccc4nc(N5CC[C@H](NC6CC6)C5)ccc4n3)cc2o1 [Compound 254] | – | – | < 100 | A (A represents <100 nM) | – | – | < 100 | – | < 100 | < 100 | < 100 | < 100 | < 100 | < 100 | < 100 | < 100 |
| Cc1nc2c(F)c(O)c(-c3ccc4nc(N5CC[C@H](NC(C)(C)C)C5)ccc4n3)cc2o1 [Compound 255] | – | – | < 100 | A (A represents <100 nM) | – | – | < 100 | – | < 100 | < 100 | < 100 | < 100 | < 100 | < 100 | < 100 | < 100 |
| Cc1nc2cc(O)c(-c3ccc4nc(N5CC[C@H](NC6(C)CC6)C5)ccc4n3)cc2o1 [Compound 257] | – | – | < 100 | B (B represents 100-1000 nM) | – | – | < 100 | – | < 100 | < 100 | < 100 | < 100 | < 100 | < 100 | < 100 | < 100 |
